Results published in patent US20250059164A1, “IRAK DEGRADERS AND USES THEREOF” (Kymera Therapeutics, Inc., priority 2023, published 2025).

Legend:
IRAK4 = biological target: T1, IRAK4 (Homo sapiens, UniProt Q9NWZ3); assay: IRAK4 MSD degradation in OCI-LY10; type: cell-based; settings: OCI-LY10 cells, 24 hrs, Meso Scale Discovery
T1 construct: endogenous in cells; host or cells: OCI-LY10
T1 sequence (Q9NWZ3 1-460): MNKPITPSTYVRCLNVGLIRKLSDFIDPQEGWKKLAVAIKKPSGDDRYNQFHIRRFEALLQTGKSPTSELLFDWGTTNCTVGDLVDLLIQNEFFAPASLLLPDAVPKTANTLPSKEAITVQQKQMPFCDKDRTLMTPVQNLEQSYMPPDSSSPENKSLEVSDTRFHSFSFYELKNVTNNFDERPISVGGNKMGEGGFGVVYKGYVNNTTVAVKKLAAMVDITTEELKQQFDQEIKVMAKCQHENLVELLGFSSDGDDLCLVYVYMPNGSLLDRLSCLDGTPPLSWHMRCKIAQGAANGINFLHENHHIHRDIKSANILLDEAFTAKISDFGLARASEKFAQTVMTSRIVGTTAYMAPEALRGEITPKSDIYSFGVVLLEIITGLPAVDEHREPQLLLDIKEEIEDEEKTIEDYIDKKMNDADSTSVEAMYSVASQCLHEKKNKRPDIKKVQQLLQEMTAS
Outline: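 Remaining IRAK4 protein measured by Meso Scale Discovery electrochemiluminescence sandwich assay on lysates of OCI-LY10 cells. Cells were exposed for 4 to 24 hours (37° C., 5% CO2) to eight 1:3-diluted concentrations starting at 1 to 10 μM. DC50 derived by three-parameter logistic fitting.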

[1] = Rodent pharmacokinetics (rat PK); type: in vivo; settings: po, dosed intravenously or orally by gavage, plasma, read-out: F % (bioavailability)
Procedure: All studies related to handling, care, and treatment of rats in the study were performed according to the guidelines approved by the Institutional Animal Care and Use Committee (IACUC). All rats had access to food and water ad libitum. Rats were dosed intravenously or orally by gavage. Whole blood was collected from the jugular vein immediately prior to dosing and at 5 (intravenously administered drugs only), 15, and 30 min and 1, 2, 4, 8, and 24 h after drug administration. After sampling, whole blood was centrifuged at 4,000×g for 5 min at 4° C. to obtain plasma.
The letter codes for bioavailability (F %) include: A (≥5%) and B (≤5%).

Compound	DC50 (IRAK4) [nM]	bioavailability [1] [%]
Cn1c(=O)n(C2CCC(=O)NC2=O)c2cccc([C@@H]3CCN(C[C@H]4CC[C@H](n5cc6cc(C(=O)Nc7cccc(C(F)(F)F)n7)ccc6n5)CC4)C[C@H]3F)c21 (some centres unmarked) [I-201]	< 10	≤ 5
Cn1c(=O)n(C2CCC(=O)NC2=O)c2cccc(N3CC4(CCN(C[C@H]5CC[C@H](n6cc7cc(NC(=O)c8cccc(C(F)(F)F)c8)ncc7n6)CC5)CC4(F)F)C3)c21 (some centres unmarked) [I-253]	< 10	≤ 5
COc1cc2nn([C@H]3CC[C@H](CN4CC[C@H](c5cccc6c5n(C)c(=O)n6C5CCC(=O)NC5=O)C(F)(F)C4)CC3)cc2cc1NC(=O)c1cncc(C#N)c1 (single isomer, unassigned) [I-106]	< 10	≤ 5
CN(C[C@H]1CC[C@H](c2cn3cc(NC(=O)c4cncc(C(F)(F)F)n4)ccc3n2)CC1)[C@@H]1CCN(c2cccc3c2n(C)c(=O)n3C2CCC(=O)NC2=O)C[C@@H]1F (single isomer, unassigned) [I-213]	< 10	≤ 5
COc1cc2nn([C@H]3CC[C@H](CN4CCC5(CCN(c6cccc7c(C8CCC(=O)NC8=O)nn(C)c67)CC5)C(F)(F)C4)CC3)cc2cc1NC(=O)c1cncc(C#N)c1 (some centres unmarked) [I-132]	< 10	≤ 5
COc1cc2nc([C@H]3CC[C@H](CN4CC[C@@H](c5cccc6c5n(C)c(=O)n6C5CCC(=O)NC5=O)C(F)(F)C4)CC3)sc2cc1NC(=O)c1cncc(C#N)c1 (single isomer, unassigned) [I-273]	> 200	≤ 5
COc1cc2nn([C@H]3CC[C@H](CN4CC[C@@H](c5cccc6c5n(C)c(=O)n6C5CCC(=O)NC5=O)[C@H](F)C4)CC3)cc2cc1NC(=O)c1cccc(C(F)(F)F)c1 (some centres unmarked) [I-246]	< 10	≤ 5
Cn1c(=O)n(C2CCC(=O)NC2=O)c2cccc([C@@H]3CCN(C[C@H]4CC[C@H](c5nc6cc(C(C)(C)O)c(NC(=O)c7cccc(C(F)(F)F)c7)cc6s5)CC4)C[C@H]3F)c21 (some centres unmarked) [I-169]	< 10	≤ 5
CN(C[C@H]1CC[C@H](n2cc(NC(=O)c3cnn4ccc(N5C[C@H]6C[C@@H]5CO6)nc34)c(C(F)F)n2)CC1)[C@H]1CCN(c2cccc3c2n(C)c(=O)n3C2CCC(=O)NC2=O)C[C@H]1F (single isomer, unassigned) [I-27]	< 10	≤ 5
Cn1c(=O)n(C2CCC(=O)NC2=O)c2cccc([C@@H]3CCN(C[C@H]4CC[C@H](n5cc(NC(=O)c6cnn7ccc(N8C[C@H]9C[C@@H]8CO9)nc67)c(C(F)F)n5)CC4)C[C@H]3F)c21 (single isomer, unassigned) [I-329]	< 10	≤ 5
COc1cc2nn([C@H]3CC[C@H](CN4CCC5(CN(c6cccc7c6n(C)c(=O)n7C6CCC(=O)NC6=O)C5)C(F)(F)C4)CC3)cc2cc1NC(=O)c1cncc(C#N)c1 (some centres unmarked) [I-247]	< 10	≤ 5
Cn1c(=O)n(C2CCC(=O)NC2=O)c2ccc(F)c([C@H]3CCN(C[C@H]4CC[C@H](n5cc6cc(NC(=O)c7cncc(C(F)(F)F)n7)ccc6n5)CC4)C[C@@H]3F)c21 (single isomer, unassigned) [I-353]	10 to 100	≥ 5
COc1cc2nn([C@H]3CC[C@H](CN4CC[C@@H](c5c(Cl)ccc6c5n(C)c(=O)n6C5CCC(=O)NC5=O)[C@H](F)C4)CC3)cc2cc1NC(=O)c1cncc(C#N)c1 (some centres unmarked) [I-133]	< 10	≤ 5
Cn1c(=O)n(C2CCC(=O)NC2=O)c2cccc([C@@H]3CCN(C[C@H]4CC[C@H](n5cc6cc(NC(=O)c7cncc(C(F)(F)F)n7)c(C#N)cc6n5)CC4)C[C@H]3F)c21 (some centres unmarked) [I-172]	< 10	≤ 5
Cn1c(=O)n(C2CCC(=O)NC2=O)c2cccc(N3CC4(CCN(C[C@H]5CC[C@H](n6cc7cc(NC(=O)c8cccc(C(F)(F)F)c8)ccc7n6)CC5)CC4(F)F)C3)c21 (some centres unmarked) [I-254]	< 10	≤ 5
Cn1nc(C2CCC(=O)NC2=O)c2cccc([C@H]3CCN(C[C@H]4CC[C@H](n5cc6cc(NC(=O)c7cncc(C#N)c7)c(C(C)(C)O)cc6n5)CC4)CC3(F)F)c21 (single isomer, unassigned) [I-223]	< 10	≤ 5
Cn1c(=O)n([C@@H]2CCC(=O)NC2=O)c2cccc([C@@H]3CCN(C[C@H]4CC[C@H](n5cc6cc(NC(=O)c7cncc(C(F)(F)F)n7)ccc6n5)CC4)C[C@H]3F)c21 (single isomer, unassigned) [I-208]	< 10	≤ 5
Cn1c(=O)n(C2CCC(=O)NC2=O)c2cccc([C@H]3CCN(C[C@H]4CC[C@H](n5cc(NC(=O)c6cnn7ccc(N8C[C@H]9C[C@@H]8CO9)nc67)c(C(F)F)n5)CC4)C[C@@H]3F)c21 (single isomer, unassigned) [I-330]	< 10	≤ 5
Cc1nn(C2CCC(=O)NC2=O)c2cccc([C@@H]3CCN(C[C@H]4CC[C@H](n5cc6cc(NC(=O)c7cncc(C(F)(F)F)n7)ncc6n5)CC4)C[C@H]3F)c12 (single isomer, unassigned) [I-340]	10 to 100	≥ 5
Cn1c(=O)n(C2CCC(=O)NC2=O)c2cccc(N3CC4(CCN(C[C@H]5CC[C@H](n6cc7cc(NC(=O)c8cncc(C(F)(F)F)c8)c(C(C)(C)O)cc7n6)CC5)CC4(F)F)C3)c21 (some centres unmarked) [I-373]	< 10	≤ 5
Cn1c(=O)n(C2CCC(=O)NC2=O)c2cccc([C@@H]3CCN(C[C@H]4CC[C@H](n5cc6cc(NC(=O)c7cncc(C(F)(F)F)n7)c(C(C)(C)O)cc6n5)CC4)C[C@H]3F)c21 (some centres unmarked) [I-171]	< 10	≤ 5
COc1cc2nc([C@H]3CC[C@H](CN4CC[C@@H](c5cccc6c5n(C)c(=O)n6C5CCC(=O)NC5=O)[C@H](F)C4)CC3)oc2cc1NC(=O)c1cncc(C(F)(F)F)n1 (some centres unmarked) [I-284]	10 to 100	≤ 5
COc1cc2nn([C@H]3CC[C@H](CN4CC[C@@H](c5cccc6c5n(C)c(=O)n6C5CCC(=O)NC5=O)[C@H](F)C4)CC3)cc2cc1NC(=O)c1cncc(C(F)(F)F)n1 (some centres unmarked) [I-189]	< 10	≤ 5
CN(C[C@H]1CC[C@H](n2cc(NC(=O)c3cnn4cccnc34)c(C(F)F)n2)CC1)[C@H]1CCN(c2cccc3c2n(C)c(=O)n3C2CCC(=O)NC2=O)C[C@@H]1F (single isomer, unassigned) [I-280]	< 10	≥ 5
CC(C)Oc1cc2nn([C@H]3CC[C@H](CN4CC[C@@H](c5cccc6c5n(C)c(=O)n6C5CCC(=O)NC5=O)[C@H](F)C4)CC3)cc2cc1NC(=O)c1cncc(C#N)c1 (some centres unmarked) [I-275]	< 10	≤ 5
Cn1c(=O)n(C2CCC(=O)NC2=O)c2cccc(N3CCC4(CCN(C[C@H]5CC[C@H](c6nc7cc(C(C)(C)O)c(NC(=O)c8cncc(C#N)c8)cc7s6)CC5)CC4(F)F)CC3)c21 (some centres unmarked) [I-364]	100 to 200	≤ 5
Cn1c(=O)n(C2CCC(=O)NC2=O)c2cccc(C#CCN3CCN(C[C@H]4CC[C@H](n5cc(NC(=O)c6cnn7ccc(N8C[C@H]9C[C@@H]8CO9)nc67)c(C(F)F)n5)CC4)C(=O)C3)c21 (some centres unmarked) [I-185]	< 10	≤ 5
COc1cc(NC(=O)c2cncc(C(F)(F)F)n2)cc2cn([C@H]3CC[C@H](CN4CC[C@@H](c5cccc6c5n(C)c(=O)n6C5CCC(=O)NC5=O)[C@H](F)C4)CC3)nc12 (some centres unmarked) [I-355]	< 10	≤ 5
